Data as given in PubChem BioAssay (NCI).
Several values for one entry are separate records, joined by “and”; a condition that tells them apart may be missing. Equal values may be shown once.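 In this assay, cells in 96-well plates receive the compound at five concentrations for 48 hours. Endpoints are linearly interpolated between the surrounding concentrations. At the GI50, growth is halved. Definition used: TGI = concentration required for complete inhibition of growth.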

Experiments:
Test in all cases: inhibition of tumour cell growth, NCI panel, 48 h
CAKI-1 renal = system: CAKI-1 renal
COLO 205 colon = system: COLO 205 colon
HCT-116 colon = system: HCT-116 colon
HT29 colon = system: HT29 colon
NCI-H460 lung = system: NCI-H460 lung
PC-3 prostate = system: PC-3 prostate
SF-539 CNS = system: SF-539 CNS
SK-MEL-28 melanoma = system: SK-MEL-28 melanoma
SK-OV-3 ovarian = system: SK-OV-3 ovarian
SN12C renal = system: SN12C renal

| SMILES | GI50 (CAKI-1 renal) [µM] | TGI (CAKI-1 renal) | GI50 (COLO 205 colon) [µM] | TGI (COLO 205 colon) | GI50 (HCT-116 colon) [µM] | TGI (HCT-116 colon) | GI50 (HT29 colon) [µM] | TGI (HT29 colon) [µM] | GI50 (NCI-H460 lung) [µM] | TGI (NCI-H460 lung) [µM] | GI50 (PC-3 prostate) | TGI (PC-3 prostate) [µM] | GI50 (SF-539 CNS) [µM] | TGI (SF-539 CNS) | GI50 (SK-MEL-28 melanoma) [µM] | TGI (SK-MEL-28 melanoma) [µM] | GI50 (SK-OV-3 ovarian) | TGI (SK-OV-3 ovarian) | GI50 (SN12C renal) [µM] | TGI (SN12C renal) |
| --- | --- | --- | --- | --- | --- | --- | --- | --- | --- | --- | --- | --- | --- | --- | --- | --- | --- | --- | --- | --- |
| COc1ccc2c(O)c(/C=C3\N=Nc4ncccc43)oc2c1C[C@H]1CCNC[C@H]1F | 0.161 | 11.3 µM | 0.24 | 0.806 µM | 0.131 | 2.15 µM | 0.411 | 6.93 | 0.388 | 1.8 | 0.267 µM | 11.1 | 0.252 | 0.952 µM | 2.22 | 12 | 1.57 µM | 9.05 µM | 0.442 | 10.6 µM |
| COc1ccc(C2=CC(c3ccc(Oc4ccnc5cc(Cl)ccc45)c(OC)c3)c3c(nc(OC)[nH]c3=O)N2)cc1 (configuration not stated) | 15.5 | > 100 µM | 79.9 | > 100 µM | 3.62 | > 100 µM | 4.24 | > 100 | 6.51 | > 100 | 6.29 µM | > 100 | 20.7 | > 100 µM | 45.3 | > 100 | > 100 µM | > 100 µM | 7.03 | > 100 µM |
| COc1cc(/C=C2\CCCC3C2=Nc2ccccc2NC3c2cc(OC)c(OC)c(OC)c2)cc(OC)c1OC (configuration not stated) | 3.31 | > 100 µM | 2.59 | 6.29 µM | 0.968 | 2.17 µM | 1.21 | – | 0.643 | 2.42 | 2.69 µM | > 100 | 3.9 | > 100 µM | 2.02 | 5.24 | 4.87 µM | > 100 µM | 2.1 | 14 µM |
| Nc1ccc(-c2ccc(Nc3cc(S(=O)(=O)O)c(N)c4c3C(=O)c3ccccc3C4=O)cc2)c(S(=O)(=O)O)c1 | – | > 100 µM | – | > 100 µM | – | > 100 µM | – | > 100 | – | > 100 | – | > 100 | – | > 100 µM | – | > 100 | – | > 100 µM | – | > 100 µM |
| O=C1c2ccc3c4c(ccc(c24)C(=O)N1CCCNCc1ccccc1)C(=O)N(CCCNCc1ccccc1)C3=O | 0.21 | 0.588 µM | 0.113 | 0.24 µM | 0.0801 | 0.39 µM | 0.0421 | 0.231 | 0.146 | 0.579 | 0.203 µM | 0.622 | 0.194 | 0.45 µM | 0.247 | 0.636 | 0.285 µM | 0.82 µM | 0.145 | 0.308 µM |
| O=C1OCC2=C1C(c1cccc(C(F)(F)F)c1)c1cc3c(cc1N2CCO)OCO3 (configuration not stated) | 1.76 | > 50 µM | 1.18 | 3.26 µM | 0.408 | > 50 µM | 1.31 | 8.4 | 1.54 | > 50 | 0.926 µM | > 50 | 0.884 | 2.73 µM | 4.54 | > 50 | 2.37 µM | > 50 µM | 2.9 | > 50 µM |
| Fc1c[c-]c(-c2ccccn2)c(F)c1.[CH3-].[Pt+2].c1ccc([PH+](c2ccccc2)c2ccccn2)cc1 | 1.23 | 2.53 µM | 1.77 | 5.72 µM | 1.3 | 2.8 µM | 2.44 | > 100 | 1.63 | 4.91 | 1.41 µM | 3.89 | 1.58 | 3.07 µM | 1.64 | 3.15 | 5.09 µM | > 100 µM | 1.51 | 4.24 µM |
| c1ccc(CCCNc2nnnc3ccccc23)cc1 | – | > 100 µM | – | > 100 µM | – | > 100 µM | – | > 100 | – | > 100 | – | > 100 | – | > 100 µM | – | > 100 | – | > 100 µM | – | > 100 µM |
| COc1cc([N+](=O)[O-])c(S(=O)(=O)O)cc1N | – | > 100 µM | – | > 100 µM | – | > 100 µM | – | > 100 | – | > 100 | – | > 100 | – | > 100 µM | – | > 100 | – | > 100 µM | – | > 100 µM |
| CN(C)CCN1C(=O)c2cccc3c(N)ccc(c23)C1=O | 4.86 | 15 µM | 8.18 | > 25 µM | 9.49 | > 25 µM | 9.06 | > 25 | 7.42 | 23.8 | 13.5 µM | > 25 | 9.14 | > 25 µM | 11.9 | > 25 | 15.9 µM | > 25 µM | 10 | > 25 µM |
| C=CC(=O)NCCOc1cccc(Nc2cc(NCCCNC(=O)C3CCC3)c(Br)cn2)c1 | 0.434 | 1.75 µM | 0.632 | 2.1 µM | 0.798 | > 25 µM | 0.548 | 2.84 | 1.12 | 4.53 | 1.3 µM | 11 | 0.568 | 2.21 µM | 1.64 | 8.78 | 1 µM | 4.06 µM | 0.623 | > 25 µM |
| S=c1nc[nH]c2nc[nH]c12 | – | > 100 µM and 436 µM and > 750 µM | 18.8 | > 100 µM and 546 µM and > 750 µM | 5.4 | > 100 µM and 710 µM and > 750 µM | 22.5 | > 750 | 4.74 | > 730 | 7.96 µM and 18.7 µM | > 750 | 3.02 | > 100 µM and 587 µM and 255 µM | 79.2 | > 750 | 0.629 µM and 5.06 µM | > 100 µM and 448 µM and > 750 µM | – | > 100 µM and 680 µM and > 750 µM |
| COc1ccccc1-c1ccc2nc(NC(=O)Nc3cc(C(F)(F)F)cc(C(F)(F)F)c3)sc2c1 | 2.33 | 6.35 µM | 1.65 | 3.92 µM | 1.07 | 2.45 µM | 2.15 | 9.21 | 2.26 | 6.12 | 1.49 µM | 6.93 | 1.99 | 5.5 µM | 2.51 | 9.1 | 2.92 µM | 11.4 µM | 1.7 | 3.36 µM |
